80 molecules from ChEMBL document CHEMBL1926602, “Anisotropy studies of tRNA-T box antiterminator RNA complex in the presence of 1,4-disubstituted 1,2,3-triazoles” (Bioorg Med Chem Lett, 2011) can be followed below.

The inhibition is the relative decrease from the control value, in per cent.

Test [1] deals with Nucleic Acid. As to the kind of experiment: Inhibition of A73U tRNA(Tyr)-5'Rhd-AM1A T box antiterminator RNA complex assessed as reduction in anisotrophy changes by at 100 uM by fluorescence anisotropy-based assay relative to untreated control. The test is classed as nucleic-acid assay. A general note: Polarisation of emitted light reports the rotation of a fluorescent probe.

Test [2] deals with Nucleic Acid. Put plainly: Stabilization of A73U tRNA(Tyr)-5'Rhd-AM1A T box antiterminator RNA complex assessed as increase in anisotrophy changes by at 100 uM by fluorescence anisotropy-based assay relative to untreated control. The test is classed as nucleic-acid assay.

Take `O=C(OC1CCCCC1n1cc(CN2CCC(c3ccccc3)CC2)nn1)c1ccccc1` (stereo not given): the inhibition in the test with Nucleic Acid [1] stood at 16%.

Turning to `CC(C)CCN(C)Cc1cn(C2CCCCC2OC(=O)c2ccccc2)nn1` (stereo not given), in the test with Nucleic Acid [1], the inhibition came to 26%.

Turning to `O=C(NCc1ccccc1)OCC(O)Cn1cc(CN2CCC(c3ccccc3)CC2)nn1` (stereo not given), the inhibition in the test on Nucleic Acid [1] stood at 29%.

Regarding `CN(CCc1ccccc1)Cc1cn(C2CCCCC2OC(=O)COc2ccccc2)nn1` (stereo not given), the inhibition in the test on Nucleic Acid [1] came to 32%. Take `CCCCN(CCCC)Cc1cn(C2CCCCC2O)nn1` (stereo not given): in the test on Nucleic Acid [1], the inhibition was 32%. With `O=C(OC1CCCCC1n1cc(CN2CCOCC2)nn1)c1ccccc1` (stereo not given), in the test on Nucleic Acid [2], the Activity came to 6%. Consider `O=C(COc1ccccc1)OC1CCCCC1n1cc(CN2CCC(c3ccccc3)CC2)nn1` (stereo not given), for which, in the test on Nucleic Acid [1], the inhibition amounted to 42%.

Turning to `CN(Cc1cn(CC(O)c2ccccc2)nn1)CC1CCCCC1` (stereo not given), the Activity in the test on Nucleic Acid [2] was found to be 6%. Take `CN(CCc1ccccc1)Cc1cn(CC(O)COCc2ccccc2)nn1` (stereo not given): the inhibition with Nucleic Acid [1] is 18%. For the molecule `CN(CCCc1ccccc1)Cc1cn(CC(O)COC(=O)c2ccccc2)nn1` (stereo not given), in the test on Nucleic Acid [1], the inhibition stood at 12%. On to `CC(C)CCN(C)Cc1cn(CC(O)c2ccccc2)nn1` (stereo not given), for which, in the test on Nucleic Acid [1], the inhibition came to 58%. For the molecule `CCCCNC(=O)OCC(O)Cn1cc(CN(CCCC)CCCC)nn1` (stereo not given), the Activity with Nucleic Acid [2] is 18%. On to `OC1CCCCC1n1cc(CN2CCC(c3ccccc3)CC2)nn1` (stereo not given), for which the inhibition with Nucleic Acid [1] came to 42%. With `CCCCCCCC(=O)OCC(O)Cn1cc(CN(CCCC)CCCC)nn1` (stereo not given), in the test on Nucleic Acid [1], the inhibition amounted to 71%. Take `CCOC(=O)C1CCCN(Cc2cn(CC(O)COCc3ccccc3)nn2)C1` (stereo not given): the inhibition in the test with Nucleic Acid [1] was determined as 26%. For the molecule `CCOC(=O)C1CCCN(Cc2cn(C3CCCCC3O)nn2)C1` (stereo not given), the inhibition in the test on Nucleic Acid [1] is 16%. Regarding `CCCCC(O)Cn1cc(CN(CCCC)CCCC)nn1` (stereo not given), the inhibition with Nucleic Acid [1] was found to be 18%. As for `CN(Cc1cn(CC(O)COC(=O)c2ccccc2)nn1)CC1CCCCC1` (stereo not given), the inhibition in the test with Nucleic Acid [1] came to 6%.

On to `O=C(COc1ccccc1)OC1CCCCC1n1cc(CN2CCN(c3ccccc3)CC2)nn1` (stereo not given), for which the inhibition with Nucleic Acid [1] was 37%. Turning to `CCCCNC(=O)OCC(O)Cn1cc(CN2CCOCC2)nn1` (stereo not given), the inhibition with Nucleic Acid [1] worked out at 5%. On to `CN(CCCc1ccccc1)Cc1cn(CC(O)COC(=O)NCc2ccccc2)nn1` (stereo not given), for which the inhibition in the test with Nucleic Acid [1] stood at 79%.

With `CCCCC(O)Cn1cc(CN2CCC(c3ccccc3)CC2)nn1` (stereo not given), the inhibition with Nucleic Acid [1] was found to be 16%. On the same count and under the same terms, then `CCCCN(CCCC)Cc1cn(CC(O)COC(=O)NCc2ccccc2)nn1` (stereo not given), with 42%. Consider `CCCCN(CCCC)Cc1cn(CC(O)COC(=O)c2ccccc2)nn1` (stereo not given), for which, in the test on Nucleic Acid [1], the inhibition is 12%. On to `CCCCN(CCCC)Cc1cn(CC(O)COC(=O)C2CCCCC2)nn1` (stereo not given), for which the inhibition with Nucleic Acid [1] came to 12%. As to `CCOC(=O)C1CCCN(Cc2cn(CC(O)COC(=O)c3ccccc3)nn2)C1` (stereo not given), in the test on Nucleic Acid [1], the inhibition amounted to 6%. Consider `CN(Cc1cn(CC(O)COC(=O)C2CCCCC2)nn1)CC1CCCCC1` (stereo not given), for which, in the test with Nucleic Acid [1], the inhibition stood at 18%. As for `OC(Cn1cc(CN2CCN(c3ccccc3)CC2)nn1)c1ccccc1` (stereo not given), the inhibition in the test with Nucleic Acid [1] worked out at 32%. Take `CN(Cc1cn(C2CCCCC2OC(=O)c2ccccc2)nn1)CC1CCCCC1` (stereo not given): in the test on Nucleic Acid [1], the inhibition worked out at 32%. Same read-out and setting: then `CCCCN(CCCC)Cc1cn(C2CCCCC2OC(=O)Cc2ccccc2)nn1` (stereo not given), with 53%. Consider `CN(CCc1ccccc1)Cc1cn(C2CCCCC2O)nn1` (stereo not given), for which the inhibition in the test on Nucleic Acid [1] worked out at 21%. `OC(Cn1cc(CN2CCOCC2)nn1)c1ccccc1` (stereo not given): the Activity in the test on Nucleic Acid [2] stood at 6%.

As for `O=C(OCC(O)Cn1cc(CN2CCOCC2)nn1)C1CCCCC1` (stereo not given), in the test with Nucleic Acid [1], the inhibition worked out at 11%. Regarding `CN(CCCc1ccccc1)Cc1cn(C2CCCCC2OC(=O)COc2ccccc2)nn1` (stereo not given), the inhibition with Nucleic Acid [1] worked out at 42%. For `CCCCNC(=O)OCC(O)Cn1cc(CN(C)CC2CCCCC2)nn1` (stereo not given), the inhibition with Nucleic Acid [1] came out at 12%.

With `CCCCCCCC(=O)OCC(O)Cn1cc(CN(C)CCCc2ccccc2)nn1` (stereo not given), the inhibition in the test on Nucleic Acid [1] came to 12%. On the same count and under the same terms, then `CN(CCCc1ccccc1)Cc1cn(CC(O)COCc2ccccc2)nn1` (stereo not given), with 18%.

Turning to `OC(COCc1ccccc1)Cn1cc(CN2CCOCC2)nn1` (stereo not given), the Activity in the test on Nucleic Acid [2] was found to be 12%. Take `CN(CCc1ccccc1)Cc1cn(CC(O)COC(=O)c2ccccc2)nn1` (stereo not given): in the test on Nucleic Acid [1], the inhibition was 0%. Consider `CCCCCCCC(=O)OCC(O)Cn1cc(CN2CCN(c3ccccc3)CC2)nn1` (stereo not given), for which the inhibition in the test with Nucleic Acid [1] came out at 26%. As for `CCOC(=O)C1CCCN(Cc2cn(CC(O)COC(=O)C3CCCCC3)nn2)C1` (stereo not given), the Activity with Nucleic Acid [2] was 6%. `CN(Cc1cn(C2CCCCC2O)nn1)CC1CCCCC1` (stereo not given): the inhibition in the test with Nucleic Acid [1] came to 47%.

Regarding `CN(Cc1cn(CC(O)COC(=O)NCc2ccccc2)nn1)CC1CCCCC1` (stereo not given), the inhibition in the test with Nucleic Acid [1] is 32%. For `CCCCNC(=O)OCC(O)Cn1cc(CN2CCCC(C(=O)OCC)C2)nn1` (stereo not given), the inhibition in the test on Nucleic Acid [1] came out at 24%.

With `CCCCC(O)Cn1cc(CN(C)CC2CCCCC2)nn1` (stereo not given), the inhibition with Nucleic Acid [1] stood at 47%. Still for that read-out and setting: then `CCCCCCCC(=O)OCC(O)Cn1cc(CN2CCOCC2)nn1` (stereo not given), with 0%; and `O=C(OC1CCCCC1n1cc(CN2CCN(c3ccccc3)CC2)nn1)c1ccccc1` (stereo not given), with 21%. Same read-out and setting: then `CCCCN(CCCC)Cc1cn(CC(O)COCc2ccccc2)nn1` (stereo not given), with 6%; and `CCOC(=O)C1CCCN(Cc2cn(C3CCCCC3OC(=O)Cc3ccccc3)nn2)C1` (stereo not given), with 21%.

Take `OC1CCCCC1n1cc(CN2CCN(c3ccccc3)CC2)nn1` (stereo not given): the inhibition with Nucleic Acid [1] came to 47%.

For `CCCCNC(=O)OCC(O)Cn1cc(CN2CCN(c3ccccc3)CC2)nn1` (stereo not given), the inhibition in the test with Nucleic Acid [1] came out at 11%. In the case of `CCCCNC(=O)OCC(O)Cn1cc(CN(C)CCC(C)C)nn1` (stereo not given), in the test with Nucleic Acid [1], the inhibition stood at 24%. For the molecule `CCCCC(O)Cn1cc(CN(C)CCc2ccccc2)nn1` (stereo not given), the inhibition with Nucleic Acid [1] worked out at 29%. For the molecule `OC1CCCCC1n1cc(CN2CCOCC2)nn1` (stereo not given), the Activity in the test on Nucleic Acid [2] amounted to 24%.

With `CC(C)CCN(C)Cc1cn(C2CCCCC2O)nn1` (stereo not given), the inhibition in the test with Nucleic Acid [1] was 42%.

Turning to `CC(C)CCN(C)Cc1cn(CC(O)COC(=O)NCc2ccccc2)nn1` (stereo not given), the inhibition in the test with Nucleic Acid [1] came out at 26%. On to `CCCCC(O)Cn1cc(CN(C)CCCc2ccccc2)nn1` (stereo not given), for which the inhibition in the test on Nucleic Acid [1] came out at 37%.

For the molecule `O=C(Cc1ccccc1)OC1CCCCC1n1cc(CN2CCOCC2)nn1` (stereo not given), the Activity in the test on Nucleic Acid [2] is 6%. Turning to `CCCCN(CCCC)Cc1cn(C2CCCCC2OC(=O)COc2ccccc2)nn1` (stereo not given), in the test on Nucleic Acid [1], the inhibition stood at 26%. Take `CN(Cc1cn(C2CCCCC2OC(=O)Cc2ccccc2)nn1)CC1CCCCC1` (stereo not given): the inhibition with Nucleic Acid [1] amounted to 5%.

On to `CCCCC(O)Cn1cc(CN2CCCC(C(=O)OCC)C2)nn1` (stereo not given), for which, in the test on Nucleic Acid [1], the inhibition stood at 53%. In the case of `CC(C)CCN(C)Cc1cn(CC(O)COC(=O)c2ccccc2)nn1` (stereo not given), in the test on Nucleic Acid [1], the inhibition was 0%.

With `CC(C)CCN(C)Cc1cn(C2CCCCC2OC(=O)COc2ccccc2)nn1` (stereo not given), the inhibition in the test on Nucleic Acid [1] was 59%. Turning to `CCCCC(O)Cn1cc(CN(C)CCC(C)C)nn1` (stereo not given), in the test on Nucleic Acid [1], the inhibition worked out at 47%. Regarding `CCOC(=O)C1CCCN(Cc2cn(CC(O)c3ccccc3)nn2)C1` (stereo not given), the Activity in the test with Nucleic Acid [2] came to 6%. Regarding `CCOC(=O)C1CCCN(Cc2cn(CC(O)COC(=O)NCc3ccccc3)nn2)C1` (stereo not given), the inhibition in the test with Nucleic Acid [1] was found to be 47%. Turning to `CN(Cc1cn(C2CCCCC2OC(=O)COc2ccccc2)nn1)CC1CCCCC1` (stereo not given), the inhibition with Nucleic Acid [1] is 37%. Turning to `CN(Cc1cn(CC(O)COCc2ccccc2)nn1)CC1CCCCC1` (stereo not given), in the test on Nucleic Acid [1], the inhibition came out at 6%. Regarding `O=C(OCC(O)Cn1cc(CN2CCOCC2)nn1)c1ccccc1` (stereo not given), the inhibition in the test with Nucleic Acid [1] amounted to 5%. On the same count and under the same terms, then `CCCCC(O)Cn1cc(CN2CCN(c3ccccc3)CC2)nn1` (stereo not given), with 47%; and `CCOC(=O)C1CCCN(Cc2cn(C3CCCCC3OC(=O)c3ccccc3)nn2)C1` (stereo not given), with 11%. With `O=C(OCC(O)Cn1cc(CN2CCN(c3ccccc3)CC2)nn1)c1ccccc1` (stereo not given), the inhibition with Nucleic Acid [1] was 11%.

On to `CCOC(=O)C1CCCN(Cc2cn(C3CCCCC3OC(=O)COc3ccccc3)nn2)C1` (stereo not given), for which the inhibition in the test with Nucleic Acid [1] came to 21%. On to `CCCCC(O)Cn1cc(CN2CCOCC2)nn1` (stereo not given), for which, in the test with Nucleic Acid [1], the inhibition worked out at 0%. In the case of `CC(C)CCN(C)Cc1cn(CC(O)COC(=O)C2CCCCC2)nn1` (stereo not given), the inhibition in the test on Nucleic Acid [1] was 0%. As for `O=C(NCc1ccccc1)OCC(O)Cn1cc(CN2CCN(c3ccccc3)CC2)nn1` (stereo not given), the inhibition in the test on Nucleic Acid [1] amounted to 32%.

Consider `CN(Cc1ccccc1)Cc1cn(CC(O)c2ccccc2)nn1` (stereo not given), for which the inhibition in the test on Nucleic Acid [1] amounted to 32%. With `O=C(COc1ccccc1)OC1CCCCC1n1cc(CN2CCOCC2)nn1` (stereo not given), the inhibition in the test with Nucleic Acid [1] is 5%.

`OC(COCc1ccccc1)Cn1cc(CN2CCN(c3ccccc3)CC2)nn1` (stereo not given): the inhibition with Nucleic Acid [1] is 37%.

Consider `CN(CCc1ccccc1)Cc1cn(CC(O)COC(=O)NCc2ccccc2)nn1` (stereo not given), for which the inhibition with Nucleic Acid [1] stood at 42%.
